The text below walks through data of patent US10093678B2, “Azaspiro derivatives as TRPM8 antagonists” (RaQualia Pharma Inc., priority 2014, dated 2018).

The target in the assay is T1, human TRPM8 (Homo sapiens, UniProt Q7Z2W7).
T1 construct: expressed in transfected cells; host or cells: HEK293
T1 sequence (Q7Z2W7 whole entry): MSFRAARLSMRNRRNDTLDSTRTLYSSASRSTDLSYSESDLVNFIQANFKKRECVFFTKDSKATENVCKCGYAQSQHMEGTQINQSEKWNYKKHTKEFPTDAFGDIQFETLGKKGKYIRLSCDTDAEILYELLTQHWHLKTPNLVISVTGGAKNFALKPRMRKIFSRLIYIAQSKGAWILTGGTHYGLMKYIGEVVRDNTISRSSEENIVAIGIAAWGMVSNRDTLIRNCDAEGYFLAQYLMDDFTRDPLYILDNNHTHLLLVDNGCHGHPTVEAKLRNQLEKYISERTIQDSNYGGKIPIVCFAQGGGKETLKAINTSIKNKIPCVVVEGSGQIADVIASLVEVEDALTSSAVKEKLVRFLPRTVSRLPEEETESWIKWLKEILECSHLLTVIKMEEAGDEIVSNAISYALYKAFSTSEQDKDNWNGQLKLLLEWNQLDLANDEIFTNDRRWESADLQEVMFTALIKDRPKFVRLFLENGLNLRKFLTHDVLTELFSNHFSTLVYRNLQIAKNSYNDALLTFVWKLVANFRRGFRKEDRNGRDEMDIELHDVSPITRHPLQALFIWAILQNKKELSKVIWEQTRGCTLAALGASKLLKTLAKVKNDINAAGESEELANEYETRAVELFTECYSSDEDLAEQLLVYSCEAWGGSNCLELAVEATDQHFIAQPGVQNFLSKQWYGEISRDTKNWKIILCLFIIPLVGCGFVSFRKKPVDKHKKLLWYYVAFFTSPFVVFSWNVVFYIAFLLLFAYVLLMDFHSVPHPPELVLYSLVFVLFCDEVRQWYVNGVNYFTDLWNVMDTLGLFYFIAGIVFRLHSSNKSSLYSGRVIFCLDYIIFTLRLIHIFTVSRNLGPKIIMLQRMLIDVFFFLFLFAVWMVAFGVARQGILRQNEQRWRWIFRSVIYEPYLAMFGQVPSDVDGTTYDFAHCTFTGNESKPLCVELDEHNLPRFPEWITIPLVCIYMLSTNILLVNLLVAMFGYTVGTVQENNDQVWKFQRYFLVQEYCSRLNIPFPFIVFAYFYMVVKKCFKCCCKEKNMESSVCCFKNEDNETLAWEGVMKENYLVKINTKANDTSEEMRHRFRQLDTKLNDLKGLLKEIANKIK
In words: Menthol-induced Ca2+ influx in HEK293 cells stably expressing human TRPM8. Format: cell-based. As to conditions: 30 microM menthol-induced Ca2+ influx, read-out: IC50 against TRPM8. The method in brief:
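IC50 values were fitted from 11-point dose-response data averaged over duplicate wells. Compound was added for 5 min to Fluo4-loaded HEK293 cells carrying stable human TRPM8, in HBSS/HEPES pH 7.4 with probenecid. Intracellular Ca2+ change after 30 microM menthol addition was then imaged on FDSS.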
As usually defined, the IC50 is the concentration that inhibits the measured activity by half. Consider `O=C(CN1C(=O)NC2(CCC(F)(F)CC2)C1=O)c1ccc(-c2cccc3ccncc23)nc1` [Example 9-12], for which the IC50 is under 10 nM.

Turning to `O=C(CN1C(=O)NC2(CCC(F)(F)CC2)C1=O)c1ccc(-c2cccc3cccnc23)nc1` [Example 9-13], the concentration for half-maximal inhibition (IC50) is under 100 nM.

On to `O=C(CN1C(=O)NC2(CCC(F)(F)CC2)C1=O)c1ccc(-c2cccc3[nH]ncc23)nc1` [Example 9-14], for which the IC50 is under 100 nM.

With `Cc1ncccc1-c1ccc(C(=O)CN2C(=O)NC3(CCC(F)(F)CC3)C2=O)cn1` [Example 9-15], the IC50 is under 100 nM.

Regarding `O=C(CN1C(=O)NC2(CCC(F)(F)CC2)C1=O)c1ccc(-c2cncc3ccccc23)nc1` [Example 9-16], the IC50 is under 100 nM.

For the compound `O=C(CN1C(=O)NC2(CCC(F)(F)CC2)C1=O)c1ccc(-c2ccccc2CO)nc1` [Example 9-17], the IC50 was under 100 nM.

Turning to `O=C(CN1C(=O)NC2(CCC(F)(F)CC2)C1=O)c1ccc(-c2ccnc3ccccc23)nc1` [Example 9-18], the IC50 is under 100 nM.

In the case of `O=C1Cc2c(cccc2-c2ccc(C(=O)CN3C(=O)NC4(CCC(F)(F)CC4)C3=O)cn2)N1` [Example 9-19], the IC50 is under 100 nM.

Take `CCc1ccccc1-c1ccc(C(=O)CN2C(=O)NC3(CCC(F)(F)CC3)C2=O)cn1` [Example 9-20]: the IC50 is under 100 nM.

`O=C(CN1C(=O)NC2(CCC(F)(F)CC2)C1=O)c1ccc(-c2cccc3cnccc23)nc1` [Example 9-21]: the half-maximal inhibitory concentration (IC50) was under 100 nM.

With `O=C(CN1C(=O)NC2(CCC(F)(F)CC2)C1=O)c1ccc(-c2ccnc3[nH]ccc23)nc1` [Example 9-22], the IC50 is under 100 nM.

Turning to `O=C(CN1C(=O)NC2(CCC(F)(F)CC2)C1=O)c1ccc(-c2cncc3[nH]ccc23)nc1` [Example 9-23], the IC50 was under 100 nM.

With `O=C(CN1C(=O)NC2(CCC(F)(F)CC2)C1=O)c1ccc(-c2cnccc2CO)nc1` [Example 9-24], the IC50 is under 100 nM.

`O=C(CN1C(=O)NC2(CCC(F)(F)CC2)C1=O)c1ccc(-c2cccnc2CO)nc1` [Example 9-25]: the IC50 is under 100 nM.

Consider `O=C(CN1C(=O)NC2(CCC(F)(F)CC2)C1=O)c1ccc(-c2ccnc3[nH]ncc23)nc1` [Example 9-26], for which the IC50 was under 500 nM.

On to `O=C(CN1C(=O)NC2(CCC(F)(F)CC2)C1=O)c1ccc(-c2cncc3[nH]ncc23)nc1` [Example 9-27], for which the IC50 was under 500 nM.

For the compound `Cc1ncccc1-c1ccc(C(=O)CN2C(=O)NC3(CCC(F)(F)CC3)C2=O)nc1` [Example 10-1], the IC50 was under 100 nM.

Take `Cc1ccccc1-c1ccc(C(=O)CN2C(=O)NC3(CCC(F)(F)CC3)C2=O)nc1` [Example 10-2]: the IC50 is under 100 nM.

Turning to `Cc1cc(C(=O)CN2C(=O)NC3(CCCCC3)C2=O)cnc1-c1ccccc1C#N` [Example 11-1], the IC50 is under 100 nM.

For the compound `Cc1cc(C(=O)CN2C(=O)NC3(CCCCC3)C2=O)cnc1-c1ccccc1` [Example 11-2], the IC50 was under 100 nM.

With `Cc1ncccc1-c1cnc(C(=O)CN2C(=O)NC3(CCC(F)(F)CC3)C2=O)cn1` [Example 12-1], the IC50 is under 10 nM.

Turning to `Cc1ccccc1-c1cnc(C(=O)CN2C(=O)NC3(CCC(F)(F)CC3)C2=O)cn1` [Example 12-2], the IC50 is under 100 nM.

As for `O=C(CN1C(=O)NC2(CCC(F)(F)CC2)C1=O)c1cnc(-c2ccccc2CO)cn1` [Example 12-3], the IC50 is under 100 nM.

Turning to `COc1ncccc1-c1cnc(C(=O)CN2C(=O)NC3(CCC(F)(F)CC3)C2=O)cn1` [Example 12-4], the IC50 was under 100 nM.

As for `COc1ccncc1-c1cnc(C(=O)CN2C(=O)NC3(CCC(F)(F)CC3)C2=O)cn1` [Example 12-5], the IC50 is under 100 nM.

Turning to `O=C(CN1C(=O)NC2(CCC(F)(F)CC2)C1=O)c1cnc(-c2cccc3cccnc23)cn1` [Example 12-6], the IC50 is under 100 nM.

As for `Cc1ccccc1-c1ccc(C(=O)CN2C(=O)NC3(CCC(F)(F)CC3)C2=O)nn1` [Example 12-7], the IC50 is under 500 nM.

Take `O=C(CN1C(=O)NC2(CCCCC2)C1=O)c1ccc(-c2ccccc2CO)cc1` [Example 13-1]: the IC50 is under 100 nM.

Consider `O=C(CN1C(=O)NC2(CCCCC2)C1=O)c1ccc(-c2cccnc2)cc1` [Example 13-2], for which the IC50 is under 100 nM.

`COc1ccccc1-c1ccc(C(=O)CN2C(=O)NC3(CCCCC3)C2=O)cc1` [Example 13-3]: the IC50 was under 100 nM.

For the compound `Cc1ccccc1-c1ccc(C(=O)CN2C(=O)NC3(CCCCC3)C2=O)cc1` [Example 13-4], the IC50 was under 100 nM.

Consider `Cc1cc(C(=O)CN2C(=O)NC3(CCCCC3)C2=O)ccc1-c1ccccc1` [Example 13-5], for which the 50% inhibitory concentration (IC50) is under 100 nM.

For `Cc1ccccc1-c1ccc(C(=O)CN2C(=O)NC3(CCCCC3)C2=O)cc1C` [Example 13-6], the IC50 was under 100 nM.

Regarding `Cc1cc(C(=O)CN2C(=O)NC3(CCC(F)(F)CC3)C2=O)ccc1-c1cccnc1` [Example 13-7], the IC50 was under 100 nM.

As for `Cc1cc(C(=O)CN2C(=O)NC3(CCC(F)(F)CC3)C2=O)ccc1-c1cncc(F)c1` [Example 13-8], the IC50 is under 100 nM.

For the compound `Cc1cc(C(=O)CN2C(=O)NC3(CCC(F)(F)CC3)C2=O)ccc1-c1ccccc1C#N` [Example 13-9], the IC50 is under 100 nM.

Turning to `Cc1cc(C(=O)CN2C(=O)NC3(CCC(F)(F)CC3)C2=O)ccc1-c1cccc2c1CNC2=O` [Example 13-10], the IC50 was under 100 nM.

As to `Cc1cc(C(=O)CN2C(=O)NC3(CCC(F)(F)CC3)C2=O)ccc1-c1cccc(C#N)c1` [Example 13-11], the IC50 is under 100 nM.

Turning to `Cc1cc(C(=O)CN2C(=O)NC3(CCC(F)(F)CC3)C2=O)ccc1-c1cccc(C(N)=O)c1` [Example 13-13], the IC50 was under 100 nM.

Take `Cc1cc(C(=O)CN2C(=O)NC3(CCC(F)(F)CC3)C2=O)ccc1-c1ccccc1` [Example 13-14]: the IC50 was under 100 nM.

As to `Cc1cc(C(=O)CN2C(=O)NC3(CCC(F)(F)CC3)C2=O)ccc1-c1cccc2ccncc12` [Example 13-15], the IC50 is under 100 nM.

For `Cc1cc(C(=O)CN2C(=O)NC3(CCC(F)(F)CC3)C2=O)ccc1-c1cc(F)cc(F)c1` [Example 13-16], the IC50 was under 100 nM.

Turning to `Cc1cc(C(=O)CN2C(=O)NC3(CCC(F)(F)CC3)C2=O)ccc1-c1cccc(F)c1` [Example 13-17], the IC50 was under 100 nM.

With `O=C(CN1C(=O)NC2(CCCCC2)C1=O)c1ccc(-c2cccnc2)cc1F` [Example 13-18], the IC50 was under 100 nM.

In the case of `N#Cc1cccc(-c2ccc(C(=O)CN3C(=O)NC4(CCCCC4)C3=O)c(F)c2)c1` [Example 13-19], the IC50 was under 100 nM.

Consider `O=C(CN1C(=O)NC2(CCCCC2)C1=O)c1ccc(-c2ccccc2)cc1F` [Example 13-20], for which the IC50 is under 100 nM.

For `O=C(CN1C(=O)NC2(CCC(F)(F)CC2)C1=O)c1ccc(-c2cccc3cccnc23)c(F)c1` [Example 13-21], the IC50 is under 100 nM.

As for `O=C(CN1C(=O)NC2(CCC(F)(F)CC2)C1=O)c1ccc(-c2cccc3cnccc23)c(F)c1` [Example 13-22], the IC50 was under 100 nM.

On to `Cc1ccncc1-c1ccc(C(=O)CN2C(=O)NC3(CCC(F)(F)CC3)C2=O)cc1Cl` [Example 13-23], for which the IC50 was under 100 nM.

Turning to `O=C(CN1C(=O)NC2(CCC(F)(F)CC2)C1=O)c1ccc(-c2cccnc2)c(Cl)c1` [Example 13-24], the IC50 is under 100 nM.

In the case of `N#Cc1ccccc1-c1ccc(C(=O)CN2C(=O)NC3(CCC(F)(F)CC3)C2=O)cc1Cl` [Example 13-25], the half-maximal inhibitory concentration (IC50) was under 100 nM.

For the compound `O=C(CN1C(=O)NC2(CCC(F)(F)CC2)C1=O)c1ccc(-c2cncc(F)c2)c(Cl)c1` [Example 13-26], the half-inhibitory concentration (IC50) was under 100 nM.

For the compound `O=C(CN1C(=O)NC2(CCC(F)(F)CC2)C1=O)c1ccc(-c2ccccc2CO)c(Cl)c1` [Example 13-27], the IC50 is under 100 nM.

On to `NC(=O)c1cccc(-c2ccc(C(=O)CN3C(=O)NC4(CCC(F)(F)CC4)C3=O)cc2Cl)c1` [Example 13-28], for which the IC50 is under 100 nM.

Consider `O=C(CN1C(=O)NC2(CCC(F)(F)CC2)C1=O)c1ccc(-c2cccc3ccncc23)c(Cl)c1` [Example 13-29], for which the IC50 is under 100 nM.

Consider `Cc1ccncc1-c1c(F)cc(C(=O)CN2C(=O)NC3(CCC(F)(F)CC3)C2=O)cc1F` [Example 13-30], for which the IC50 was under 100 nM.

With `N#Cc1ccccc1-c1c(F)cc(C(=O)CN2C(=O)NC3(CCC(F)(F)CC3)C2=O)cc1F` [Example 13-31], the IC50 is under 100 nM.

Consider `O=C(CN1C(=O)NC2(CCC(F)(F)CC2)C1=O)c1cc(F)c(-c2ccccc2CO)c(F)c1` [Example 13-32], for which the IC50 is under 100 nM.

As to `N#Cc1cccc(-c2c(F)cc(C(=O)CN3C(=O)NC4(CCC(F)(F)CC4)C3=O)cc2F)c1` [Example 13-33], the IC50 is under 500 nM.

As for `O=C(CN1C(=O)NC2(CCC(F)(F)CC2)C1=O)c1ccc(-c2ccccc2CO)cc1` [Example 13-34], the IC50 was under 10 nM.

Take `Cc1ccncc1-c1ccc(C(=O)CN2C(=O)NC3(CCC(F)(F)CC3)C2=O)cc1` [Example 13-35]: the IC50 was under 10 nM.

`O=C(CN1C(=O)NC2(CCC(F)(F)CC2)C1=O)c1ccc(-c2cccc3ccncc23)cc1` [Example 13-36]: the IC50 was under 10 nM.

For `O=C(CN1C(=O)NC2(CCC(F)(F)CC2)C1=O)c1ccc(-c2cncc3ccccc23)cc1` [Example 13-37], the IC50 is under 10 nM.

Regarding `COc1ccncc1-c1ccc(C(=O)CN2C(=O)NC3(CCC(F)(F)CC3)C2=O)cc1` [Example 13-39], the IC50 is under 100 nM.

With `O=C(CN1C(=O)NC2(CCC(F)(F)CC2)C1=O)c1ccc(-c2cccc3[nH]ncc23)cc1` [Example 13-40], the IC50 is under 100 nM.

Turning to `O=C(CN1C(=O)NC2(CCC(F)(F)CC2)C1=O)c1ccc(-c2cccc3cnccc23)cc1` [Example 13-41], the IC50 was under 100 nM.

On to `O=C(CN1C(=O)NC2(CCC(F)(F)CC2)C1=O)c1ccc(-c2cccc3[nH]ccc23)cc1` [Example 13-42], for which the IC50 is under 100 nM.

For `O=C(CN1C(=O)NC2(CCC(F)(F)CC2)C1=O)c1ccc(-c2ccnc3ccccc23)cc1` [Example 13-43], the IC50 is under 100 nM.
